The source of these data is patent US20160257697A1, “THIOPHENE-SUBSTITUTED TETRACYCLIC COMPOUNDS AND METHODS OFUSE THEREOF FOR THE TREATMENT OF VIRAL DISEASES” (priority 2013, published 2016).

Test in all cases: microbe, parasite or virus in culture
What all share (type): cell-based, Hepatitis C virus (HCV)

In one test the test system is HCV replicon 1AY93H. The following applies: read-out: 1A Y93H IC50; replicon 1AY93H; Replicon Assay A. A digest of the protocol: (§1)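 Three-day treatment of replicon cells (2000/well, 5% FBS, 0.5% DMSO), followed by TaqMan RT-PCR of replicon RNA with cyclophilin as internal control.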
In a further test the test system is HCV replicon 1A. Particulars: replicon 1A; Replicon Assay A. A digest of the protocol:
as §1

The subject of another test is HCV replicon 2B. The following applies: Replicon Assay A. A digest of the protocol:
as §1

The test system of the next test is HCV replicon 1AQ30D. Particulars: Replicon Assay B.
A further test deals with HCV replicon 1B. The following applies: replicon 1B, Replicon Assay B.
[1] abbreviates: read-out: 1A Q30D IC50, replicon 1AQ30D.
Where [2] appears, read: Hepatitis C virus, read-out: 1A Q30D IC50 (nM), replicon 1AQ30D.

Like-named read-outs stand apart in the source and are kept apart here.

With `COC(=O)N[C@H](C(=O)N1CCC[C@H]1c1ncc(-c2ccc3c(c2)cc2n3C(c3ccc(C4CC4)s3)Oc3cc(-c4cnc([C@@H]5CCCN5C(=O)[C@@H](NC(=O)OC)C5CCOCC5)[nH]4)cc(C)c3-2)[nH]1)C(C)C` (single isomer, unassigned) [Compound 123], the 50% inhibitory concentration (IC50) in the test with HCV replicon 1AY93H turned out to be 590 pM; in the test with HCV replicon 1A it was 1.2 pM; with HCV replicon 2B (read-out: 2B IC50, replicon 2B), 0.064 nM; in the test with HCV replicon 1AQ30D (setting [1]), 0.38 nM; with HCV replicon 1B, 3.1 pM.
Regarding `COC(=O)NC(C(=O)N1CCC[C@H]1c1ncc(-c2ccc3c(c2)cc2n3C(c3ccc(C4CC4)s3)Oc3cc(-c4cnc([C@@H]5CCCN5C(=O)[C@@H](NC(=O)OC)C(C)C)[nH]4)cc(F)c3-2)[nH]1)C1CCO[C@H](C)C1` (single isomer, unassigned) [Compound 134], the 50% inhibitory concentration (IC50) was 2 pM in the test with HCV replicon 1AY93H; 2.5 pM with HCV replicon 1A; 0.003 nM in the test on HCV replicon 2B (read-out: 2B IC50, replicon 2B); 0.015 nM in the test on HCV replicon 1AQ30D (setting [1]); 2.6 pM in the test with HCV replicon 1B.
The corresponding values for `COC(=O)NC(C(=O)N1CCC[C@H]1c1ncc(-c2ccc3c(c2)cc2n3C(c3ccc(C4CC4)s3)Oc3cc(-c4cnc([C@@H]5CCCN5C(=O)[C@@H](NC(=O)OC)C(C)C)[nH]4)cc(F)c3-2)[nH]1)C1CCO[C@H](C)C1` (single isomer, unassigned) [Compound 135] are 4 pM, 2.4 pM, 0.006 nM, 0.027 nM and 3 pM.
With `COC(=O)NC(C(=O)N1CCC[C@H]1c1ncc(-c2ccc3c(c2)cc2n3C(c3ccc(C4CC4)s3)Oc3cc(-c4cnc([C@@H]5CCCN5C(=O)[C@@H](NC(=O)OC)C(C)C)[nH]4)cc(F)c3-2)[nH]1)C1CCO[C@H](C)C1` (single isomer, unassigned) [Compound 136], the IC50 in the test on HCV replicon 1AY93H was found to be 200 pM; with HCV replicon 1A it was 1.8 pM; in the test on HCV replicon 2B (read-out: 2B IC50, replicon 2B), 0.23 nM; in the test on HCV replicon 1AQ30D (setting [1]), 0.9 nM; with HCV replicon 1B, 1.7 pM.
The corresponding values for `COC(=O)NC(C(=O)N1CCC[C@H]1c1ncc(-c2ccc3c(c2)cc2n3C(c3ccc(C4CC4)s3)Oc3cc(-c4cnc([C@@H]5CCCN5C(=O)[C@@H](NC(=O)OC)C(C)C)[nH]4)cc(F)c3-2)[nH]1)C1CCO[C@H](C)C1` (single isomer, unassigned) [Compound 138] are 19 pM, 1.3 pM, 0.061 nM, 0.67 nM and 1.4 pM.
On the same counts, the results for `COC(=O)NC(C(=O)N1CCC[C@H]1c1ncc(-c2ccc3c(c2)cc2n3C(c3ccc(C4CC4)s3)Oc3cc(-c4cnc([C@@H]5CCCN5C(=O)[C@@H](NC(=O)OC)C(C)C)[nH]4)cc(F)c3-2)[nH]1)C1CCO[C@H](C)C1` (single isomer, unassigned) [Compound 139] are 85 pM, 1.9 pM, 0.11 nM, 1.03 nM and 1.4 pM.
For `CCc1ccc(C2Oc3cc(-c4cnc([C@@H]5CCCN5C(=O)C(NC(=O)OC)C5C[C@@H](C)O[C@@H](C)C5)[nH]4)cc(F)c3-c3cc4cc(-c5cnc([C@@H]6CCCN6C(=O)[C@@H](NC(=O)OC)C(C)C)[nH]5)ccc4n32)s1` (single isomer, unassigned) [Compound 156], the IC50 with HCV replicon 1AY93H was found to be 5 pM; with HCV replicon 1A it was 2 pM; with HCV replicon 2B (read-out: 2B IC50, replicon 2B), 0.005 nM; with HCV replicon 1AQ30D (setting [2]), 0.019 nM; in the test with HCV replicon 1B (Hepatitis C virus) it was 1.8 pM.
In the case of `CCc1ccc(C2Oc3cc(-c4cnc([C@@H]5CCCN5C(=O)C(NC(=O)OC)C5CCOC(C)(C)C5)[nH]4)cc(F)c3-c3cc4cc(-c5cnc([C@@H]6CCCN6C(=O)[C@@H](NC(=O)OC)C(C)C)[nH]5)ccc4n32)s1` (single isomer, unassigned) [Compound 162], the IC50 in the test with HCV replicon 1AY93H amounted to 4 pM; in the test on HCV replicon 1A, 2.2 pM; in the test on HCV replicon 2B (read-out: 2B IC50, replicon 2B), 0.006 nM; with HCV replicon 1AQ30D (setting [1]) it was 0.027 nM; with HCV replicon 1B it was 1.9 pM.
On the same counts, the results for `CCc1ccc(C2Oc3cc(-c4cnc([C@@H]5CCCN5C(=O)C(NC(=O)OC)C5CCOC(C)(C)C5)[nH]4)cc(F)c3-c3cc4cc(-c5cnc([C@@H]6CCCN6C(=O)[C@@H](NC(=O)OC)C(C)C)[nH]5)ccc4n32)s1` (single isomer, unassigned) [Compound 163] are 58 pM, 18.4 pM, 0.063 nM, 0.17 nM and 31.3 pM.
As for `COC(=O)NC(C(=O)N1CCC[C@H]1c1ncc(-c2ccc3c(c2)cc2n3C(c3ccc(C4CC4)s3)Oc3cc(-c4cnc([C@@H]5CCCN5C(=O)[C@@H](NC(=O)OC)C5CCOCC5)[nH]4)cc(F)c3-2)[nH]1)C(C)(C)F` (single isomer, unassigned) [Compound 172], the 50% inhibitory concentration (IC50) was 4 pM in the test on HCV replicon 1AY93H; 1.5 pM with HCV replicon 1A; 0.005 nM in the test with HCV replicon 2B (read-out: 2B IC50, replicon 2B); 0.018 nM with HCV replicon 1AQ30D (setting [1]); 1.8 pM in the test with HCV replicon 1B (Hepatitis C virus).
For the compound `COC(=O)NC(C(=O)N1CCC[C@H]1c1ncc(-c2ccc3c(c2)cc2n3C(c3ccc(C4CC4)s3)Oc3cc(-c4cnc([C@@H]5CCCN5C(=O)[C@@H](NC(=O)OC)C5CCOCC5)[nH]4)cc(F)c3-2)[nH]1)C(C)(C)F` (single isomer, unassigned) [Compound 173], the IC50 with HCV replicon 1AY93H came to 98 pM; in the test with HCV replicon 1A it was 1.7 pM; in the test on HCV replicon 2B (read-out: 2B IC50, replicon 2B), 0.35 nM; in the test with HCV replicon 1AQ30D (setting [1]) it was 0.28 nM; in the test on HCV replicon 1B it was 2.1 pM.
Consider `COC(=O)NC(C(=O)N1CCC[C@H]1c1ncc(-c2ccc3c(c2)cc2n3C(c3cc4ccccc4s3)Oc3cc(-c4cnc([C@@H]5CCCN5C(=O)[C@@H](NC(=O)OC)C5CCOCC5)[nH]4)cc(F)c3-2)[nH]1)C(C)(C)F` (single isomer, unassigned) [Compound 182], for which the IC50 with HCV replicon 1AY93H amounted to 44 pM; in the test on HCV replicon 1A it was 2 pM; with HCV replicon 2B (read-out: 2B IC50, replicon 2B), 0.005 nM; in the test with HCV replicon 1AQ30D (setting [1]) it was 0.049 nM; in the test with HCV replicon 1B (Hepatitis C virus), 2 pM.
On to `COC(=O)NC(C(=O)N1CCC[C@H]1c1ncc(-c2ccc3c(c2)cc2n3C(c3cc4ccccc4s3)Oc3cc(-c4cnc([C@@H]5CCCN5C(=O)[C@@H](NC(=O)OC)C5CCOCC5)[nH]4)cc(F)c3-2)[nH]1)C(C)(C)F` (single isomer, unassigned) [Compound 183], for which the 50% inhibitory concentration (IC50) is 740 pM in the test with HCV replicon 1AY93H; 1.2 pM with HCV replicon 1A; 0.68 nM in the test with HCV replicon 2B (read-out: 2B IC50, replicon 2B); 1.08 nM in the test with HCV replicon 1AQ30D (setting [1]); 2.4 pM in the test with HCV replicon 1B.
On the same counts, the results for `COC(=O)NC(C(=O)N1CCC[C@H]1c1ncc(-c2ccc3c(c2)cc2n3C(c3cc4ccccc4s3)Oc3cc(-c4cnc([C@@H]5CCCN5C(=O)[C@@H](NC(=O)OC)C5CCOCC5)[nH]4)cc(F)c3-2)[nH]1)C(C)(C)F` (single isomer, unassigned) [Compound 184] are 160 pM, 2 pM, 0.076 nM, 0.21 nM and 2 pM.
On the same counts, the results for `COC(=O)NC(C(=O)N1CCC[C@H]1c1ncc(-c2ccc3c(c2)cc2n3C(c3cc4ccccc4s3)Oc3cc(-c4cnc([C@@H]5CCCN5C(=O)[C@@H](NC(=O)OC)C5CCOCC5)[nH]4)cc(F)c3-2)[nH]1)C(C)(C)F` (single isomer, unassigned) [Compound 185] are 2400 pM, 4.6 pM, 1.35 nM, 2.95 nM and 2.6 pM.
Regarding `COC(=O)NC(C(=O)N1CCC[C@H]1c1ncc(-c2cc(F)c3c(c2)OC(c2ccc(C4CC4)s2)n2c-3cc3cc(-c4cnc([C@@H]5CCCN5C(=O)[C@@H](NC(=O)OC)C(C)C)[nH]4)ccc32)[nH]1)C1C[C@@H](C)O[C@@H](C)C1` (single isomer, unassigned) [Compound 186], the concentration for half-maximal inhibition (IC50) in the test on HCV replicon 1AY93H was determined as 530 pM; with HCV replicon 1A, 1.9 pM; in the test with HCV replicon 2B (Hepatitis C virus, read-out: 2B IC50 (nM), replicon 2B) it was 0.63 nM; in the test on HCV replicon 1AQ30D (setting [2]), 2.84 nM; in the test with HCV replicon 1B (Hepatitis C virus), 2.1 pM.
In the case of `COC(=O)NC(C(=O)N1CCC[C@H]1c1ncc(-c2cc(F)c3c(c2)OC(c2ccc(C4CC4)s2)n2c-3cc3cc(-c4cnc([C@@H]5CCCN5C(=O)[C@@H](NC(=O)OC)C(C)C)[nH]4)ccc32)[nH]1)C1C[C@@H](C)O[C@@H](C)C1` (single isomer, unassigned) [Compound 189], the half-maximal inhibitory concentration (IC50) was 260 pM in the test on HCV replicon 1AY93H; 1.3 pM in the test on HCV replicon 1A; 0.48 nM in the test with HCV replicon 2B (read-out: 2B IC50, replicon 2B); 1.42 nM with HCV replicon 1AQ30D (setting [1]); 1.8 pM in the test on HCV replicon 1B.
`CCc1ccc(C2Oc3cc(-c4cnc([C@@H]5CCCN5C(=O)[C@@H](NC(=O)OC)C(C)C)[nH]4)cc(F)c3-c3cc4cc(-c5cnc([C@@H]6C[C@H]7C[C@H]7N6C(=O)C(NC(=O)OC)C6CCOC(C)(C)C6)[nH]5)ccc4n32)s1` (single isomer, unassigned) [Compound 200]: the IC50 is 2 pM in the test with HCV replicon 1AY93H; 2.1 pM with HCV replicon 1A; 0.014 nM with HCV replicon 2B (read-out: 2B IC50, replicon 2B); 0.036 nM with HCV replicon 1AQ30D (setting [1]); 3 pM with HCV replicon 1B (Hepatitis C virus).
Turning to `CCc1ccc(C2Oc3cc(-c4cnc([C@@H]5CCCN5C(=O)[C@@H](NC(=O)OC)C(C)C)[nH]4)cc(F)c3-c3cc4cc(-c5cnc([C@@H]6C[C@H]7C[C@H]7N6C(=O)C(NC(=O)OC)C6CCOC(C)(C)C6)[nH]5)ccc4n32)s1` (single isomer, unassigned) [Compound 201], the 50% inhibitory concentration (IC50) in the test with HCV replicon 1AY93H came out at 2 pM; in the test on HCV replicon 1A it was 1.5 pM; in the test on HCV replicon 2B (read-out: 2B IC50, replicon 2B), 0.008 nM; in the test on HCV replicon 1AQ30D (setting [1]) it was 0.015 nM; in the test with HCV replicon 1B it was 2.2 pM.
